In ChEMBL document CHEMBL4219182, “One-pot, multicomponent synthesis of 2,3-disubstituted quinazolin-ones with potent and selective activity against Toxoplasma gondii” (Bioorg Med Chem Lett, 2018):
Active and inactive are the calls of the source. No cut-off for these calls is given here.

Assays:
[1] = Therapeutic index, ratio of TD50 for HFF to IC50 for tachyzoite stage of Toxoplasma gondii expressing beta-gal infected in HFF; format: toxicity; details: human; read-out: TI
Toxoplasma gondii [2] = test: Antiparasitic activity against tachyzoite stage of Toxoplasma gondii infected in HFF assessed as reduction in parasite invasion at 10 uM pretreated with parasite for 20 mins followed by infection in HFF measured by immunofluorescence staining based assay; format: functional, organism-based
Toxoplasma gondii [3] = test: Antiparasitic activity against tachyzoite stage of Toxoplasma gondii infected in HFF assessed as reduction in parasite attachment to host cell at 10 uM pretreated with parasite for 20 mins followed by infection in HFF measured by immunofluorescence staining based assay; format: functional, organism-based
[4] = Cytotoxicity against HFF by CellTiter96 AQueous one solution cell proliferation assay; format: cell-based; details: human, HFF cells; read-out: TD50 (the source's name)
Toxoplasma gondii [5] = test: Antiparasitic activity against tachyzoite stage of Toxoplasma gondii infected in HFF assessed as inhibition of parasite replication by measuring parasitophorous vacuoles containing 1 or 2 tachyzoites at 10 uM after 24 hrs by microscopic analysis; format: functional
Toxoplasma gondii [6] = test: Antiparasitic activity against tachyzoite stage of Toxoplasma gondii expressing beta-gal infected in HFF after 4 days by […] based assay; format: functional, organism-based; details: 96 h
Toxoplasma gondii [7] = test: Antiparasitic activity against tachyzoite stage of Toxoplasma gondii infected in HFF assessed as inhibition of parasite replication by measuring increase in parasitophorous vacuoles containing 1 tachyzoites at 10 uM after 24 hrs by microscopic analysis; format: functional, organism-based
Toxoplasma gondii [8] = test: Antiparasitic activity against tachyzoite stage of Toxoplasma gondii infected in HFF assessed as inhibition of parasite replication by measuring parasitophorous vacuoles containing 1, 2, 4 and 8 tachyzoites at 10 uM after 24 hrs by microscopic analysis; format: functional, organism-based

Row | Structure (SMILES) | selectivity ratio [1] | Activity (Toxoplasma gondii [2]) | Activity (Toxoplasma gondii [3]) | CC50 [4] [µM] | inhibition at 10 µM (Toxoplasma gondii [5]) [%] | IC50 (Toxoplasma gondii [6]) [µM] | IC90 (Toxoplasma gondii [6]) [µM] | inhibition (Toxoplasma gondii [7]) | inhibition (Toxoplasma gondii [8])
1 | CC(C)=CCCC(C)=CCn1c(-c2ccc(OCc3ccccc3)cc2)nc2ccccc2c1=O | 46 | inactive | inactive | ≥ 320 | > 70 | 7 | 58 |  | 
2 | O=c1c2ccccc2nc(-c2ccc(OCc3ccccc3)cc2)n1C1CCCCC1 | 53 | inactive | inactive | ≥ 320 | > 70 | 6 | 46 |  | 
3 | O=C1C(O)=C([C@H]2CC[C@H](c3ccc(Cl)cc3)CC2)C(=O)c2ccccc21 [ATOVAQUONE] | 111 |  |  | 21 |  | 0.2 | 0.6 |  | 
4 | CCCCCCCCCCn1c(-c2ccc(N(C)C)cc2)nc2ccccc2c1=O | 7 |  |  | ≥ 320 |  | 49 | 170 |  | 
5 | CN(C)c1ccc(-c2nc3ccccc3c(=O)n2Cc2ccccc2)cc1 | 11 |  |  | 133 |  | 12 | 60 |  | 
6 | C[C@@H]1CC[C@H]2[C@@H](C)C(=O)O[C@@H]3O[C@@]4(C)CC[C@@H]1[C@]32OO4 [ARTEMISININ] | 160 |  |  | ≥ 320 |  | 2 | 19 |  | 
7 | O=c1c2ccccc2nc(-c2ccc(OCc3ccccc3)cc2)n1Cc1ccccc1 | 25 | inactive | inactive | ≥ 320 | > 70 | 13 | 71 |  | 
8 | CCCCCCn1c(-c2ccc(Br)cc2)nc2ccccc2c1=O | 1 | Active | Active | 88 |  | 60 | 193 | Active | 
9 | COc1ccc(-n2c(-c3ccc(Br)cc3)nc3ccccc3c2=O)cc1 | 10 |  |  | ≥ 320 |  | 32 | 81 |  | 
10 | Oc1nc(-c2ccc(F)cc2)nc2ccccc12 | 11 |  |  | ≥ 320 |  | 29 | 260 |  | 
11 | CCCCCCn1c(-c2ccc(OCc3ccccc3)cc2)nc2ccccc2c1=O | 18 | Active | Active | 178 |  | 10 | 45 |  | inactive
12 | COc1ccc(-c2nc3ccccc3c(=O)n2-c2ccc(Br)cc2)cc1 | 6 |  |  | 196 |  | 31 | 83 |  | 
13 | COc1ccc(-n2c(-c3ccc(OCc4ccccc4)cc3)nc3ccccc3c2=O)cc1 | 1 | Active | Active | 4 |  | 4 | 14 |  | 
14 | CC(C)CCn1c(-c2ccc(OCc3ccccc3)cc2)nc2ccccc2c1=O | 10 |  |  | 118 |  | 12 | 55 |  | 
15 | CC(C)CCn1c(-c2ccc(N(C)C)cc2)nc2ccccc2c1=O | 2 |  |  | 85 |  | 35 | 116 |  | 
16 | COc1ccc(-c2nc3ccccc3c(=O)[nH]2)cc1 | 6 |  |  | 125 |  | 20 | 121 |  | 
17 | O=c1c2ccccc2nc(-c2ccc(OCc3ccccc3)cc2)n1-c1ccc(Br)cc1 | 2 | Active |  | 5 | > 75 | 3 | 12 | Active | 

Row | Structure (SMILES) | selectivity ratio [1] | Activity (Toxoplasma gondii [2]) | Activity (Toxoplasma gondii [3]) | CC50 [4] [µM] | inhibition at 10 µM (Toxoplasma gondii [5]) [%] | IC50 (Toxoplasma gondii [6]) [µM] | IC90 (Toxoplasma gondii [6]) [µM] | inhibition (Toxoplasma gondii [7]) | inhibition (Toxoplasma gondii [8])
18 | COc1ccccc1-c1nc(O)c2ccccc2n1 | 5 |  |  | 305 |  | 56 | 266 |  | 
19 | O=c1[nH]c(-c2ccc(OCc3ccccc3)cc2)nc2ccccc12 | 2 |  |  | ≥ 320 |  | 153 | 4990 |  | 
20 | CN(C)c1ccc(-c2nc(O)c3ccccc3n2)cc1 | 23 | Active | Active | ≥ 320 |  | 14 | 281 |  | inactive
21 | O=c1[nH]c(-c2ccc(OC(F)(F)F)cc2)nc2ccccc12 | 12 |  |  | ≥ 320 |  | 27 | 447 |  | 
22 | COc1ccc(-n2c(-c3ccc4c(c3)OCO4)nc3ccccc3c2=O)cc1 | 8 |  |  | ≥ 320 |  | 40 | 91 |  | 
23 | CN(C)c1ccc(-c2nc3ccccc3c(=O)n2C2CCCCC2)cc1 | 7 |  |  | 112 |  | 15 | 67 |  | 
24 | CCCCCCn1c(-c2ccc(OC)cc2)nc2ccccc2c1=O | 4 |  |  | 42 |  | 10 | 48 |  | 
25 | CCCCCCn1c(-c2ccc(N(C)C)cc2)nc2ccccc2c1=O | 3 |  |  | 50 |  | 18 | 52 |  | 
26 | CCCCCCCCCCn1c(-c2ccc(OCc3ccccc3)cc2)nc2ccccc2c1=O | 13 |  |  | ≥ 320 |  | 25 | 119 |  | 
27 | Oc1nc(-c2cccnc2)nc2ccccc12 | 3 |  |  | ≥ 320 |  | 94 | 225 |  | 
28 | O=c1c2ccccc2nc(-c2ccc(OCc3ccccc3)cc2)n1CCc1cc2ccccc2[nH]1 | 2 |  |  | ≥ 320 |  | 154 | 724 |  | 
29 | O=c1c2ccccc2nc(-c2ccc(Br)cc2)n1-c1ccc(Br)cc1 | 7 |  |  | ≥ 320 |  | 44 | 126 |  | 
30 | O=c1[nH]c(-c2ccc3c(c2)OCO3)nc2ccccc12 | 6 |  |  | ≥ 320 |  | 50 | 443 |  | 
31 | CN(C)c1ccc(-c2nc3ccccc3c(=O)n2CCc2ccc(O)cc2)cc1 | 2 |  |  | 196 |  | 112 | 353 |  | 
32 | O=c1[nH]c(-c2ccc(Br)cc2)nc2ccccc12 | 3 | Active | Active | ≥ 320 |  | 92 | 414 | Active | 
33 | O=c1c2ccccc2nc(-c2ccc(OCc3ccccc3)cc2)n1CCc1ccc(O)cc1 | 13 |  |  | 229 |  | 17 | 52 |  | 
